These are literature values, as cited in US6284262A, “Compact dosage unit for buccal administration of a pharmacologically active agent” (priority 1999, dated 2001).

Series [1] concerns sex hormone-binding protein. The conditions noted are these: plasma, adult men.
In series [2] the test system is albumin and other proteins. The settings on record: plasma, adult men.

Consider `C[C@]12CC[C@H]3[C@@H](CCC4=CC(=O)CC[C@@]43C)[C@@H]1CC[C@@H]2O` [testosterone], for which the “absorption after oral administration” value is “well absorbed” and the “therapeutic blood levels via oral administration” value is “not possible to achieve therapeutic blood levels”. Under “oral”, the “degradation during passage through the liver and intestine” value is on record as “quickly degraded”. Further, the “testosterone bound to sex hormone-binding protein” value in series [1] is on record as “Approximately 40%”. Further, in series [2], the “bound to albumin and other proteins” value is “the remainder”; the “free, or unbound testosterone” value is on record as “about 2%”.
